Reference: patent publication US8338565B2, “Macrocyclic compounds for inhibition of tumor necrosis factor alpha” (Ensemble Therapeutics Corporation, priority 2008, dated 2012)
pIC50: −log10 of the molar value. Where two headings read alike, the source gives them in different places. Numbered stars: 1 amine (or outer) side, 2 acyl side, 3 side chain; on linkers, the order of the positions; unused ones are H or OH. Bridge positions count the residues as written; N and C are the ends. Square brackets hold non-standard residues; d marks the D form. Peptide text beside a SMILES is read from it. Tartaroyl(2R,3R-(OAc)2) = CC(=O)O[C@@H](C(=O)[*:1])[C@@H](OC(C)=O)C(=O)[*:2]; Phe(4-COOH) = N[C@@H](Cc1ccc(C(=O)O)cc1)C(=O)O; Bip = N[C@@H](Cc1ccc(-c2ccccc2)cc1)C(=O)O; dPhe(4-NH2) = Nc1ccc(C[C@@H](N)C(=O)O)cc1; Phe(4-NH2) = Nc1ccc(C[C@H](N)C(=O)O)cc1; d(hPhe) = N[C@H](CCc1ccccc1)C(=O)O; 2Thi = N[C@@H](Cc1cccs1)C(=O)O; d2Thi = N[C@H](Cc1cccs1)C(=O)O; Suc = O=C(CCC(=O)[*:2])[*:1]; βAla = NCCC(=O)O

Experiments:
[1] = biological target: T1, TNFα / TNFα receptor (TNFα R1/Fc) (Homo sapiens, UniProt P01375); assay: Inhibition of binding of TNFα to the TNFα receptor (plate ELISA competition); details: Table 2
T1 construct: purchased R&D Systems
Method in brief: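 Compound dilutions were preincubated 30 min at RT with 8.33 nM TNFα R1/Fc in PBST with 2% DMSO, then added to wells coated with 15 nM TNFα for 30 min. Bound receptor was detected with HRP anti-human Fc and TMB, read as A450.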

[2] = system: TNF-α (degradation of IkB in HeLa cells or A431 cells); assay: Human cell-based assay: inhibition of TNF-α induced degradation of IkB; details: for inhibition at 5 µM: read-out: Inhibition at Various Compound Concentrations, 5 μM; for inhibition at 10 µM: read-out: Inhibition at Various Compound Concentrations, 10 μM; for inhibition at 25 µM: 25 μM compound, read-out: Inhibition at Various Compound Concentrations, 25 μM
Experimental: We used a human cell-based assay to determine the TNF-α antagonistic activity of the compounds of this invention based upon the ability of the compounds to inhibit the degradation of IkB in those cells. The assay was performed on either HeLa cells or A431 cells.
On Day 1, wells of a 24-well tissue culture plate were seeded with cells that had been harvested from cultures in T-75 flasks by standard trypsin/EDTA treatment. The harvested cells were suspended in EMEM/10% FBS/P/S (100,000 HeLa cells/mL or 200,000 A431 cells/mL) and 1 mL aliquots were placed into each well. The cells were incubated overnight at 37° C. in a humidified CO2 incubator. On day 2, the cells were approximately 95% confluent.
Test and control compounds were diluted to a 1 mM solution by dilution in DMSO. The assay was run in Costar tubes. Into each tube was placed 2.5 or 5.0 μL of test compound (for testing 5 μM and 10 μM concentrations, respectively), 2.5 μL of 100× TNF-α solution (200 ng/mL TNF-α in EMEM containing 1μg/mL cycloheximide) and, for those tubes containing 2.5 μL of compound, an additional 2.5 μL of DMSO. To each tube was then added 0.5 mL of EMEM containing 1μg/mL cycloheximide. Negative control tubes contained either a) no compound, or b) no TNF-α. Tubes were then incubated for 30 minutes at room temperature.
Once incubation had begun, the media was aspirated from the cells in the 24-well plates. Sufficient EMEM/10% FBS/P/S containing 1 ug/mL cycloheximide was then added to cover the cells (approximately 3 mL) and the cells were retuned to the 37° C. humidified CO2 incubator until compound incubation was completed. The media was then aspirated from the cells, 0.2 mL of the compound solution was added and the cells re-incubated at 37° C. for 30 minutes. The plates were then placed on ice, the compound solution was aspirated from each well, and the cells washed once with 1 mL of cold PBS. Cells were then fixed with 500 μL of 3.7% formaldehyde in PBS (“fix solution”) for 20 minutes at room temperature. The fix solution was decanted and the cells permeabilized by 4× washing with 500 uL PBS/0.1% Triton X-100. After the final permeabilization wash, the cells were treated with 500 uL of Odyssey blocking buffer (OBB) and incubated at room temperature with shaking for 90 minutes.
The OBB was decanted and then to each well was then added 125 μL each of mouse anti-IkB CST#4814 (diluted 1:200 in OBB) and rabbit anti-beta-tubulin CST#2146 (diluted 1:200 in OBB). Plates were sealed with parafin and incubated overnight at room temperature with shaking.
On day 3, the antibody solution was removed from the cells and the cells were washed 5× with 0.5 mL PBST for five minutes each on a shaker. To each well was then aded 125 μL of a secondary antibody solution containing goat anti-mouse IgG-IRDye 800 and goat anti-rabbit IgG-IRDye (each diluted 1:500 in OBB+0.2% Tween 20). The plates were covered with aluminum foil and incubated for 1 hour at room temperature with shaking. The secondary antibody solution was removed and the cells washed 3× with 0.5 mL PBST for five minutes each on a shaker. Cells were then scanned by LICOR with the following settings: 700 intensity=6.0, 800 intensity=6.5; microplate2 settings with 3.0 mm offset; 169 resolution. LICOR values were fitted to an equation for a sigmoidal curve and IC50 values calculated from the fitted parameters. […] Blank cells indicate that the compound was not tested at that concentration. Certain compounds that were tested more than once and the values reflect the average of the multiple tests.

[3] = read-out: Activity (IC50, inhibition of TNFα binding to TNFα R1/Fc)
[4] = 5 μM compound, HeLa or A431 cells
[5] = 10 μM compound, HeLa or A431 cells
[6] = Activity (IC50, inhibition of TNFα binding to TNFα R1/Fc)

T1 sequence (P01375 77-233 limits assumed, species assumed): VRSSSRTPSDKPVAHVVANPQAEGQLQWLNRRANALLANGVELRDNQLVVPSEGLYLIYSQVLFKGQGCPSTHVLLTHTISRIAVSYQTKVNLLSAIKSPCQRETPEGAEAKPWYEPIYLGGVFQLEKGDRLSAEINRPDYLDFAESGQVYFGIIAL

Compound | pIC50 [1, 3] | inhibition at 5 µM [2, 4] [%] | inhibition at 10 µM [2, 5] [%] | inhibition at 25 µM ([2]; HeLa or A431 cells) [%] | pIC50 [1, 6] | inhibition at 10 µM [2] [%] | inhibition at 5 µM [2] [%]
O=C(O)CNC(=O)[C@@H]1Cc2ccc(cc2)OCC(=O)N[C@H](Cc2cccs2)C(=O)N[C@@H](Cc2ccc(-c3ccccc3)cc2)C(=O)N[C@H](CCc2ccccc2)C(=O)N1 [Compound 321] | > 5.00 | < 10 | 10 to 50 |  |  |  | 
O=C(O)CNC(=O)[C@@H]1Cc2ccc(cc2)NC(=O)CCC(=O)N[C@H](Cc2cccs2)C(=O)N[C@@H](Cc2ccc(-c3ccccc3)cc2)C(=O)N[C@H](Cc2ccccc2)C(=O)N1 [Compound 19] ([d2Thi][Bip][dF][Phe(4-NH2)]G-OH; linker N-4 via Suc) | 4.52 to 5.00 |  |  | < 10 |  |  | 
O=C(O)CCNC(=O)[C@@H]1Cc2ccc(cc2)OCC(=O)N[C@@H](Cc2cccs2)C(=O)N[C@@H](Cc2ccc(-c3ccccc3)cc2)C(=O)N[C@@H](Cc2ccccc2)C(=O)N1 [Compound 339] | > 5.00 | < 10 | 10 to 50 |  |  |  | 
O=C1COc2ccc(cc2)C[C@@H](C(=O)N[C@@H](Cc2ccc(O)cc2)C(=O)O)NC(=O)[C@@H](CCc2ccccc2)NC(=O)[C@H](Cc2ccc(-c3ccccc3)cc2)NC(=O)[C@@H](Cc2cccs2)N1 [Compound 300] |  |  |  |  | > 5.00 | 10 to 50 | 
O=C1CCC(=O)N[C@@H](Cc2cccs2)C(=O)N[C@@H](Cc2ccc(-c3ccccc3)cc2)C(=O)N[C@H](Cc2ccccc2)C(=O)N[C@H](C(=O)O)Cc2ccc(cc2)N1 [Compound 43] ([2Thi][Bip][dF][Phe(4-NH2)]-OH; linker N-4 via Suc) | < 4.00 |  |  | < 10 |  |  | 
O=C(O)CCCNC(=O)[C@@H]1Cc2ccc(cc2)OCC(=O)N[C@H](Cc2cccs2)C(=O)N[C@@H](Cc2ccc(-c3ccccc3)cc2)C(=O)N[C@H](CCc2ccccc2)C(=O)N1 [Compound 298] | > 5.00 | < 10 | < 10 |  |  |  | 
CC(=O)O[C@H]1C(=O)Nc2ccc(cc2)C[C@H](C(=O)O)NC(=O)[C@@H](CCc2ccccc2)NC(=O)[C@H](Cc2ccc(-c3ccccc3)cc2)NC(=O)[C@@H](Cc2cccs2)NC(=O)[C@@H]1OC(C)=O [Compound 217] ([d2Thi][Bip][d(hPhe)][dPhe(4-NH2)]-OH; linker N-4 via Tartaroyl(2R,3R-(OAc)2)) | > 5.00 | < 10 | < 10 |  |  |  | 
O=C1COc2ccc(cc2)C[C@@H](C(=O)NC2(C(=O)O)CC2)NC(=O)[C@H](Cc2ccccc2)NC(=O)[C@@H](Cc2ccc(-c3ccccc3)cc2)NC(=O)[C@H](Cc2cccs2)N1 [Compound 391] |  |  |  |  | > 5.00 | 10 to 50 | 10 to 50
O=C1N[C@H](CCc2ccccc2)C(=O)N[C@@H](C(=O)O)Cc2ccc(cc2)NC(=O)[C@H](O)[C@@H](O)C(=O)N[C@H](Cc2ccccc2)C(=O)N[C@H]1Cc1ccc(Br)cc1 [Compound 237] | > 5.00 | < 10 | < 10 |  |  |  | 
O=C1CCNC(=O)c2ccc(cc2)C[C@@H](C(=O)O)NC(=O)[C@@H](Cc2ccccc2)NC(=O)[C@H](Cc2ccc(-c3ccccc3)cc2)NC(=O)[C@@H](CCc2ccccc2)N1 [Compound 248] ([βAla][d(hPhe)][Bip][dF][Phe(4-COOH)]-OH; lactam N-5) | > 5.00 | < 10 | 10 to 50 |  |  |  | 
O=C1COc2ccc(cc2)C[C@@H](C(=O)O)NC(=O)[C@H](Cc2ccccc2)NC(=O)[C@H](Cc2ccc(-c3ccccc3)cc2)NC(=O)[C@H](Cc2cccs2)N1 [Compound 212] | > 5.00 |  |  |  |  | < 10 | < 10
